Substitutions are numbered along the chain they refer to.

The target of one test is T1, NUAK1 (Homo sapiens, UniProt O60285).
T1 sequence (O60285 1-661): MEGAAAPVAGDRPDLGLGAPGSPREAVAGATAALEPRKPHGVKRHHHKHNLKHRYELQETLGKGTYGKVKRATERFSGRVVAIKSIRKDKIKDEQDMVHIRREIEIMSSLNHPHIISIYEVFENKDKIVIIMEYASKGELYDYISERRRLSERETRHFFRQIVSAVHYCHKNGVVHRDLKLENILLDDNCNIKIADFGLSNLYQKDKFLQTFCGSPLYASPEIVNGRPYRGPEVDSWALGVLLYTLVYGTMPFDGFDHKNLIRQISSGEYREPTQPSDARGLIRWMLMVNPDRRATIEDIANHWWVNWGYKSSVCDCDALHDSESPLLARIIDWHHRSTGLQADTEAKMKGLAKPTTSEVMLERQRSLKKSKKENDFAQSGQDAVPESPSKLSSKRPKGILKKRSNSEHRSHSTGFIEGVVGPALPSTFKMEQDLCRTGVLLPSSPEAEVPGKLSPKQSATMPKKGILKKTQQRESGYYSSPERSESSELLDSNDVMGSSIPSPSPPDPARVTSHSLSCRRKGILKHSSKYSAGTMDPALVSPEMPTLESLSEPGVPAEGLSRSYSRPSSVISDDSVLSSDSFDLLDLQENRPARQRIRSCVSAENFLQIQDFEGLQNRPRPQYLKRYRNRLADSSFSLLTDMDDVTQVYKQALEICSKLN
The note with it: cited from earlier work.

A further test has as its system U2OS cell. The note with it: 3D invasion assay, compared with NUAK1 knockout; cited from earlier work.
Another test concerns MEF cells. The note with it: compared with shRNA knockdown of NUAK1; cited from earlier work.
Test [1] has as its target T2, NUAK1 (mutation from Ala to Thr at position 195) (Homo sapiens, UniProt O60285, A195T).
T2 sequence (O60285 1-661 A195T): T1 sequence (O60285 1-661) with A195T
The note with it: cited from earlier work.

The next test deals with T3, NUAK2(h) enzyme (Homo sapiens, UniProt Q9H093).
T3 construct: purchased Eurofins Discovery
T3 sequence (Q9H093 1-628): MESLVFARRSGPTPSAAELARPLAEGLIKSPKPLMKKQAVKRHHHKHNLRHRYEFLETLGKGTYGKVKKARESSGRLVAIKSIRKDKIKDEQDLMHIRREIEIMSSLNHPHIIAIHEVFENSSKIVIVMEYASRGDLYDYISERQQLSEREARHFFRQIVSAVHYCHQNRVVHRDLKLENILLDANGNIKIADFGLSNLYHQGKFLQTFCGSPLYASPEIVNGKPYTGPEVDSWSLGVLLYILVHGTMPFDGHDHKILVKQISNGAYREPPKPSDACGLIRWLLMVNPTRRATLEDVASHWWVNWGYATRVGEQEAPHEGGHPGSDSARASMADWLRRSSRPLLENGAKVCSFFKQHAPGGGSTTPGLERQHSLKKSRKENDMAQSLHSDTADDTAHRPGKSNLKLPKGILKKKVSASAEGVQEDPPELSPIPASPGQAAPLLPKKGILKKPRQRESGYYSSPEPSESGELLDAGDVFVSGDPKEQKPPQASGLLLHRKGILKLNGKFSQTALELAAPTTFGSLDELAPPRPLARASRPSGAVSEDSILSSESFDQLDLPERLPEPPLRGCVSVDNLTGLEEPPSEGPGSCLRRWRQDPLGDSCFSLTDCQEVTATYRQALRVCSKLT
As to the kind of experiment: In vitro NUAK2 enzymatic assay (Eurofins Discovery, [γ-33P]-ATP filter assay). Format: biochemical. The note with it: 45 μM ATP, 40 min, room temperature; read-out: IC50, inhibitory effect on NUAK2 enzyme activity. As to the method:
In Vitro Assay to Determine the Inhibitory Effect of Compounds in the Patent on NUAK2 Enzymatic Activity
The in vitro NUAK2 enzymatic assay was carried out at Eurofins Discovery to evaluate the inhibitory effect of the compounds presented in the invention. The assay protocol is as follow: the compound to be tested was mixed with NUAK2(h) enzyme and 300 […] substrate in 8 mM MOPS (pH 7.0) buffer containing 0.2 mM EDTA. A Mg/ATP mixture containing 10 mM magnesium acetate and 45 μM [γ-33P]-ATP was added to start the reaction. After incubation for 40 min at room temperature, the reaction was terminated by adding 0.5% phosphoric acid. Then 10 μL of the reaction mix was spotted onto a P30 filter paper. The filter paper was washed four times with 0.425% phosphoric acid with 4 min for each wash, and one time with methanol. The filter paper was air-dried and counted in a liquid scintillation counter. The values obtained were plotted against the drug concentration and the IC50 was calculated.
Table 1 summarizes the inhibitory effect (IC50) of compounds on the NUAK2 enzyme activity in the present invention. ++++ indicates IC50≤10 nM; +++ indicates 10 nM<IC50≤100 nM; ++ indicates 100 nM<IC50≤1 μM; + indicates IC50>1 μM.

The target in the next test is T4, NUAK1(h) enzyme (Homo sapiens, UniProt O60285).
T4 construct: purchased Eurofins Discovery
T4 sequence (O60285 1-661): T1 sequence (O60285 1-661)
As to the kind of experiment: In vitro NUAK1 enzymatic assay (Eurofins Discovery, [γ-33P]-ATP filter assay). Format: biochemical. The note with it: 45 μM ATP, 40 min, room temperature; read-out: IC50, inhibitory effect on NUAK1 enzyme activity. As to the method: In Vitro Assay to Determine the Inhibitory Effect of Compounds in the Patent on NUAK1 Enzymatic Activity
The in vitro NUAK1 enzymatic assay was carried out at Eurofins Discovery to evaluate the inhibitory effect of the compounds presented in the invention. The assay protocol is as follow: the compound to be tested was mixed with NUAK1(h) enzyme and 300 μM […] substrate in 8 mM MOPS (pH 7.0) buffer containing 0.2 mM EDTA and incubated at room temperature. A Mg/ATP mixture containing 10 mM magnesium acetate and 45 μM [y-33P]-ATP was added to start the reaction. After incubation for 40 min at room temperature, the reaction was terminated by adding 0.5% phosphoric acid. Then, 10 μL of the reaction mix was spotted onto a P30 filter paper followed with four times of wash with 0.425% phosphoric acid solution (4 min each time), and one time wash with methanol. The filter paper was air-dried and counted in a liquid scintillation counter. The values obtained were plotted against the drug concentration and the IC50 was calculated.
Table 1 summarizes the inhibitory effect (IC50) of compounds tested on the NUAK1 enzyme activity in the present invention. ++++ indicates IC50≤10 nM; […]; ++ indicates 100 nM<IC50≤1 μM; + indicates IC50>1 μM.

Test [2] deals with HEC-1-B human endometrial cancer cells. As to the kind of experiment: CTG (CellTiter-Glo) proliferation assay on HEC-1-B cells, 7 days. It is filed as cell-based. The note with it: 168 h, 7 days incubation, read-out: IC50, inhibitory effect on proliferation of Hec-1B cells. As to the method: CTG Assay to Evaluate the Inhibitory Effect of Compounds on HEC-1-B Human Endometrial Cancer Cells
Human endometrial cancer HEC-1-B cells were resuscitated and cultured in complete medium (MEM medium+10% FBS). When reaching about 80% confluence, the cells were gently blown away from the bottom of the culture dish with a 1 mL pipette. The cells were collected and centrifuged at 500 rpm for 3 min. The supernatant was discarded and the cell pellet was resuspend in fresh medium. Cells were counted to determine cell density and seeded into 96-well plates at a density of 1000 cells per well and incubated overnight at 37° C. in a 5% CO2 incubator. In the next day, the compounds in storage solution was serially diluted with DMSO at a ratio of 1:3 for a total of 9 concentrations. Two μL of each serially diluted solution was added to 98 μL of cell culture medium ([…]), while DMSO was mixed with culture medium similarly to be served as control. The compound dilutions were shaken and mixed. The cell culture plate with cells was removed from CO2 incubator, the culture medium was aspirated from each well, 135 μL of fresh medium was added to each well followed with 15 μL of the compound dilutions. The plates were incubated at 37° C. for 7 days in a 5% CO2 incubator. One hundred μL CellTiter-Glo reagent was added to each well and the plate was vortexed for 2 min and incubated for 10 min to fully lyse the cells. The chemiluminescence values were read using a plate reader.
The chemiluminescence values were plotted against compound concentrations to calculate the inhibitory activity of each compound on cell proliferation Cell inhibition rate (%)=(chemiluminescence value tested compound−chemiluminescence value DMSO control)/(chemiluminescence value medium control−chemiluminescence valueDMSO control)×100%.
A nonlinear S-curve regression was fitted using XLFit software to fit the data to derive a dose-effect curve, from which the IC50 values were calculated. The curve equation was Y=Bottom+(Top-Bottom)/(1+10{acute over ( )}((LogIC50-X)×slope)), where Y is the cellular inhibition rate, X is the compound concentration, Bottom refers to the lowest inhibition rate, and Top refers to the highest inhibition rate.
Table 3 summarizes the inhibitory effects (IC50) of the compounds on the proliferation of Hec-1B cells, Where ++++ indicates 100 nM<IC50≤500 nM; +++ indicates 500 nM<IC50≤1 μM; ++ indicates 1 μM<IC50≤10 μM; + indicates IC50>10 μM.

For `CCC(=O)Nc1cccc(Oc2nc(Nc3ccc(N4CCN(C)CC4)cc3OC)ncc2Cl)c1` [WZ4003], the “inhibition of phosphorylation of MYPT1 by NUAK1 at Ser445” value at NUAK1 is given as “inhibit the phosphorylation of MYPT1”. Also, the “inhibition of U2OS cell invasion” value in the test on U2OS cell was “inhibited U2OS cell invasion similarly to NUAK1 knockout did”. For the same compound, in the test with MEF cells, the “inhibition on proliferation against MEF cells” value was “comparable to that of shRNA knockdown of NUAK1”. In addition, the “resistance of NUAK1 Ala195Thr mutant to the inhibitor” value in test [1] was 50 fold.

In the case of `COc1cc(N2CCN(C)CC2)ccc1Nc1ncc2c(n1)N(C1CCCC1)C(=O)CC2` [Example 28, 8-cyclopentyl-2-((2-methoxy-4-(4-methylpiperazin-1-yl)phenyl)amino)-5,8-dihydropyrido[2,3-d]pyrimidin-7(6H)-one], the IC50 at NUAK2(h) enzyme lay within 10 to 100 nM; on NUAK1(h) enzyme it was 100 to 1000 nM; in test [2] it was 1000 to 10000 nM.

As to `Cc1nc(Nc2cnn(C3CCNCC3)c2)nc2c1N(C)C(=O)c1cc3ccccc3cc1N2C` [HTH-01-015], the “inhibition of phosphorylation of MYPT1 by NUAK1 at Ser445” value at NUAK1 is “inhibit the phosphorylation of MYPT1”. For the same compound, the “inhibition of U2OS cell invasion” value in the test on U2OS cell is “inhibited U2OS cell invasion similarly to NUAK1 knockout did”. For the same compound, the “inhibition on proliferation against MEF cells” value with MEF cells is recorded as “comparable to that of shRNA knockdown of NUAK1”. Moreover, the “resistance of NUAK1 Ala195Thr mutant to the inhibitor” value in test [1] is on record as 50 fold.

With `COc1cc(N2CCN(C)CC2)ccc1Nc1ncc2c(C)cc(=O)n(C3CCCC3)c2n1` [Example 27, 8-cyclopentyl-2-((2-methoxy-4-(4-methylpiperazin-1-yl)phenyl)amino)-5-methylpyrido[2,3-d]pyrimidin-7(8H)-one], the IC50 fell in the range of 100 to 1000 nM at NUAK2(h) enzyme, 100 to 1000 nM on NUAK1(h) enzyme and 1000 to 10000 nM in test [2].

Take `COc1cc(N2CCN(C)CC2)ccc1Nc1ncc2c(n1)N(C1CCCC1)C(=O)NC2` [Example 2, 1-cyclopentyl-7-((2-methoxy-4-(4-methylpiperazin-1-yl)phenyl)amino)-3,4-dihydropyrimido[4,5-d]pyrimidin-2(1H)-one]: the IC50 on NUAK2(h) enzyme is 10 to 100 nM; on NUAK1(h) enzyme it was 10 to 100 nM; in test [2] it was 1000 to 10000 nM.

Take `CN1CCN(c2ccc(Nc3ncc4c(n3)N(C3CCCC3)C(=O)NC4)c(Br)c2)CC1` [Example 32, 7-((2-bromo-4-(4-methylpiperazin-1-yl)phenyl)amino)-1-cyclopentyl-3,4-dihydropyrimido[4,5-d]pyrimidin-2(1H)-one]: the IC50 at NUAK2(h) enzyme is 10 to 100 nM; at NUAK1(h) enzyme, 10 to 100 nM; in test [2], 1000 to 10000 nM.

The values above are taken from patent US20240124464A1, “SUBSTITUTED FUSED BICYCLIC COMPOUND AS KINASE INHIBITOR AND USE THEREOF” (IMPACT THERAPEUTICS (SHANGHAI), INC, priority 2020, published 2024).
